Measurements reported in patent publication US8084466B2, “Bicyclic heteroaryl-substituted imidazoles as modulators of the histamine H4 receptor” (Janssen Pharmaceutica NV, priority 2007, dated 2011).

These compounds were tested against T1, human histamine H4 receptor (Homo sapiens, UniProt Q9H3N8) (assay: Binding Assay on Recombinant Human Histamine H4 Receptor). Conditions: competition binding with 3H-histamine (5 nM; KD 5 nM), membranes of SK-N-MC or COS7 cells expressing human H4 receptor; average of results; > = highest value tested.
T1 construct: expressed in transfected cells; host or cells: SK-N-MC cells or COS7 cells, transient transfection with pH4R; cell membranes
How it was run: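 Membranes from SK-N-MC or COS7 cells transiently transfected with H4R incubated 45 min at room temperature with ³H-histamine; nonspecific binding defined with 10,000 nM histamine. Filtration and scintillation counting. Ki from competition with 5 nM ³H-histamine, using a KD of 5 nM.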

| Ki [nM] | Structure (SMILES) |
| --- | --- |
| 3330 | Cc1ccc2[nH]c(-c3ccc4ncn(CCCCC5CCNCC5)c4c3)nc2c1C [Example 123, 4,5-Dimethyl-3′-(4-piperidin-4-yl-butyl)-1H,3′H-[2,5′]bibenzoimidazolyl] |
| > 10000 | Fc1ccc2[nH]c(-c3ccc4ncn(CCCCC5CCNCC5)c4c3)nc2c1 [Example 124, 5-Fluoro-3′-(4-piperidin-4-yl-butyl)-1H,3′H-[2,5′]bibenzoimidazolyl] |
| 2670 | Cc1ccc2[nH]c(-c3ccc4ncn(CCCCC5CCN(C)CC5)c4c3)nc2c1C [Example 125, 4,5-Dimethyl-3′-[4-(1-methyl-piperidin-4-yl)-butyl]-1H,3′H-[2,5′]bibenzoimidazolyl] |
| > 10000 | CN1CCC(CCCCn2cnc3ccc(-c4nc5cc(F)ccc5[nH]4)cc32)CC1 [Example 126, 5-Fluoro-3′-[4-(1-methyl-piperidin-4-yl)-butyl]-1H,3′H [2,5′]bibenzoimidazolyl] |
| 2100 | c1ccc2cc3[nH]c(-c4cccc5c4ccn5CCCCC4CCNCC4)nc3cc2c1 [Example 127, 2-[1-(4-Piperidin-4-yl-butyl)-1H-indol-4-yl]-1H-naphtho[2,3-d]imidazole] |
| 2000 | O=C(c1ccccc1)c1ccc2[nH]c(-c3cccc4c3c(Cl)cn4CCCCC3CCNCC3)nc2c1 [Example 129, {2-[3-Chloro-1-(4-piperidin-4-yl-butyl)-1H-indol-4-yl]-1H-benzoimidazol-5-yl}-phenyl-methanone] |
| > 10000 | FC(F)(F)c1ccc2[nH]c(-c3cccc4c3c(Cl)cn4CCCCC3CCNCC3)nc2c1 [Example 130, 2-[3-Chloro-1-(4-piperidin-4-yl-butyl)-1H-indol-4-yl]-5-trifluoromethyl-1H-benzoimidazole] |
| 3330 | Fc1cc2nc(-c3cccc4c3c(Cl)cn4CCCCC3CCNCC3)[nH]c2cc1F [Example 131, 2-[3-Chloro-1-(4-piperidin-4-yl-butyl)-1H-indol-4-yl]-5,6-difluoro-1H-benzoimidazole] |
| 3330 | Fc1ccc2[nH]c(-c3cccc4c3c(Cl)cn4CCCCC3CCNCC3)nc2c1F [Example 132, 2-[3-Chloro-1-(4-piperidin-4-yl-butyl)-1H-indol-4-yl]-4,5-difluoro-1H-benzoimidazole] |
| > 10000 | Cc1c(F)ccc2[nH]c(-c3cccc4c3c(Cl)cn4CCCCC3CCNCC3)nc12 [Example 133, 2-[3-Chloro-1-(4-piperidin-4-yl-butyl)-1H-indol-4-yl]-5-fluoro-4-methyl-1H-benzoimidazole] |
| > 10000 | Cc1nc2ccc3nc(-c4cccc5c4c(Cl)cn5CCCCC4CCNCC4)[nH]c3c2s1 [Example 134, 7-[3-Chloro-1-(4-piperidin-4-yl-butyl)-1H-indol-4-yl]-2-methyl-8H-imidazo[4′,5′:3,4]benzo[1,2-d]thiazole] |
| > 10000 | COC(=O)c1ccc2nc(-c3cccc4c3c(Cl)cn4CCCCC3CCNCC3)[nH]c2c1 [Example 135, 2-[3-Chloro-1-(4-piperidin-4-yl-butyl)-1H-indol-4-yl]-3H-benzoimidazole-5-carboxylic acid methyl ester] |
| 941 | Cc1nc2ccc3nc(-c4cccc5c4c(Cl)cn5CCCCC4CCN(C)CC4)[nH]c3c2s1 [Example 136, 7-{3-Chloro-1-[4-(1-methyl-piperidin-4-yl)-butyl]-1H-indol-4-yl}-2-methyl-8H-imidazo[4′,5′:3,4]benzo[1,2-d]thiazole] |
| 2880 | COC(=O)c1ccc2nc(-c3cccc4c3c(Cl)cn4CCCCC3CCN(C)CC3)[nH]c2c1 [Example 137, 2-{3-Chloro-1-[4-(1-methyl-piperidin-4-yl)-butyl]-1H-indol-4-yl}-3H-benzoimidazole-5-carboxylic acid methyl ester] |
| 429 | Cc1ccc2[nH]c(-c3ccc4c(ncn4CCCC4CCNCC4)c3C)nc2c1C [Example 138, 4,5,4′-Trimethyl-1′-(3-piperidin-4-yl-propyl)-1H,1′H-[2,5′]bibenzoimidazolyl] |
| 2640 | Cc1cc(C)c2nc(-c3cccc4c3ccn4CCCCC3CCNCC3)[nH]c2c1 [Example 139, 4,6-Dimethyl-2-[1-(4-piperidin-4-yl-butyl)-1H-indol-4-yl]-1H-benzoimidazole] |
| 3330 | Clc1ccc2nc(-c3cccc4c3ccn4CCCCC3CCNCC3)[nH]c2c1 [Example 140, 6-Chloro-2-[1-(4-piperidin-4-yl-butyl)-1H-indol-4-yl]-1H-benzoimidazole] |
| 2170 | FC(F)(F)c1ccc2nc(-c3cccc4c3ccn4CCCCC3CCNCC3)[nH]c2c1 [Example 141, 2-[1-(4-Piperidin-4-yl-butyl)-1H-indol-4-yl]-6-trifluoromethyl-1H-benzoimidazole] |
| 7 | Cc1nc(-c2ccc3c(ncn3CCCC3CCN(C)CC3)c2C)[nH]c1-c1ccc(C(F)(F)F)cc1 [Example 142, 4-Methyl-1-[3-(1-methyl-piperidin-4-yl)-propyl]-5-[4-methyl-5-(4-trifluoromethyl-phenyl)-1H-imidazol-2-yl]-1H-benzoimidazole] |
| 1 | COc1ccc(-c2[nH]c(-c3ccc4c(ncn4CCCC4CCN(C)CC4)c3C)nc2C)cc1 [Example 143, 5-[5-(4-Methoxy-phenyl)-4-methyl-1H-imidazol-2-yl]-4-methyl-1-[3-(1-methyl-piperidin-4-yl)-propyl]-1H-benzoimidazole] |
